Experimental data: PMC8322648, “Brevibacillin 2V Exerts Its Bactericidal Activity via Binding to Lipid II and Permeabilizing Cellular Membranes” (Frontiers in Microbiology, 2021)

Legend:
[1] = tested on: S. aureus ATCC15975 (MRSA) membrane; assay: DiSC3(5) membrane potential assay; format: cell-based, Staphylococcus aureus; settings: 2 × MIC; for rank order of membrane disruption capacity: correlates with calculated hydrophobicity
Protocol: Staphylococcus aureus ATCC15975 (MRSA) was grown to an OD600 of 0.8. The culture was pelleted at 5,000 × g for 5 min and washed three times in 10 mm HEPES with 10 mm glucose (pH 7.2). The cell density was normalized to an OD600 of 0.2, loaded with 2 μm DiSC3(5) dye, and incubated for 20 min in the dark for probe fluorescence to stabilize. After incubation, KCl was added to the cell suspension at a final concentration of 100 mm. Subsequently, the cell suspension was added to a 96-well microplate and incubation for 5 min; after that, antibiotics were added at a final concentration of 2 × MIC. Fluorescence was monitored for 25 min, with the antibiotics added after ~20 s. The excitation and emission wavelengths on the fluorescence spectrometer were adjusted to 622 nm and 670 nm, respectively. Representative examples from three technical replicates are shown.

[2] = Carboxyfluorescein leakage assay, DOPC LUVs with 0.1% Lipid II; settings: peptide 100 nM; for membrane permeabilization (CF leakage), Lipid II containing LUVs: LUVs 5 μM, DOPC plus 0.1% Lipid II, 25 mM Tris-HCl, 150 mM NaCl, pH 7.5, ex 492/em 515 nm
Protocol: (§1) LUVs that contain DOPC or DOPC plus 0.1% Lipid II were prepared for a carboxyfluorescein (CF) leakage assay. The lipids were dried by a nitrogen stream and followed under vacuum for 2 h. After that, the lipids were hydrated by adding 25 mm Tris-HCl, 150 mm NaCl, and pH 7.5 containing 50 mm CF. The suspensions were frozen and thawed 10 times, followed by extrusion through 200nm membrane filters (Whatman Nuclepore, Track-Etch Membranes) 10 times. The excess dye was removed by loading vesicles on a spin column (Sephadex G50) for 2 min at 500 × g. Subsequently, the vesicles were diluted to 5 μm, and the brevibacillins-induced release of CF from the vesicles was monitored by measuring the increase in fluorescence intensity. The maximum fluorescence was reached by adding 10 μl of 20% Triton X-100. A Cary Eclipse Fluorescence Spectrophotometer (Agilent, United States) was used to determine the changes of fluorescence signals, and the excitation wavelength and emission wavelength were adjusted to 492 nm and 515 nm, respectively.

[3] = Carboxyfluorescein leakage assay, LUVs of pure DOPC; settings: peptide 100 nM; pure DOPC LUVs 5 μM; 25 mM Tris-HCl, 150 mM NaCl, pH 7.5; ex 492/em 515 nm
Protocol: as §1

[4] = ref Zhao et al., 2021; cited from earlier work
[5] = tested on: Staphylococcus aureus (MRSA); settings: ref Zhao et al., cited from earlier work; for MIC: Staphylococcus aureus (MRSA), Figure 1, 2021; for MIC (molar): strain not given, compared with CF leakage concentration, 2021 (MIC source, b3)
Description: Figure 1 Structures of brevibacillins. The red color indicates the more hydrophobic amino acid residues of brevibacillin V, brevibacillin and brevibacillin I relative to brevibacillin 2V. MIC, the minimum inhibitory concentration against Staphylococcus aureus (MRSA). HC50, the 50% human blood cell hemolysis concentration. CC50, the 50% cell (HepG2) toxicity concentration. […] LUVs-based CF leakage assay is widely used in the studies of the antibiotic mode of action ([Hasper et al., 2004]; [Smith et al., 2008]; [Slootweg et al., 2015]; [Bakhtiary et al., 2017]). Disruption of the vesicle membrane by certain compounds releases CF from the LUVs into the extra-vesicular milieu resulting in increased fluorescence signal (Figure ...

[6] = Pyrene-labeled Lipid II fluorescence quenching assay; format: binding; settings: 50 μM DOPC LUVs with 0.5 mol % pyrene-labeled Lipid II, 20°C, ex 350 nm
Protocol: The effects of antibiotics on pyrene-labeled Lipid II were measured using 50 μm DOPC-based large unilamellar vesicles (LUVs) containing 0.5 mol % pyrene-labeled Lipid II ([Breukink et al., 2003]). Briefly, the LUVs were added to a quartz cuvette and titrated with nisin, brevibacillin, or brevibacillin 2V with stirring at 20°C. The fluorescence spectra were recorded between 360 and 600 nm (λex350 nm) using a Cary Eclipse Fluorescence Spectrophotometer (Agilent, United States).

[7] = tested on: S. aureus (MRSA); assay: Membrane permeability assay, concentration series (fluorescence microscopy); format: cell-based, Staphylococcus aureus; settings: 15 min; for concentration needed to permeabilize virtually all cellular membranes: comparison of brevibacillin and brevibacillin 2V
Protocol: Staphylococcus aureus ATCC15975 (MRSA) was grown to an OD600 of 0.8. The culture was pelleted at 5,000 × g for 5 min and washed three times in 10 mm HEPES with 10 mm glucose (pH 7.2). After normalization of the cell density to an OD600 of 0.2 in 10 mm HEPES with 10 mm glucose (pH 7.2), a 2-fold MIC concentration of brevibacillins (4 μg/ml) or nisin (8 μg/ml) was added. At the same time, SYTO® 9 and propidium iodide (LIVE/DEAD Baclight Bacterial Viability Kit, Invitrogen) were added to the above cell suspensions. After incubation at room temperature for 15 min, peptides were removed and washed three times with 10 mm HEPES with 10 mm glucose (pH 7.2). Then, the cell suspensions were loaded on 1.5% agarose pads and analyzed by DeltaVision Elite microscope (Applied Precision; [Zhao and Kuipers, 2021]).
GraphPad Prism 7.0 was used to fit the data of time-killing assay, DiSC3(5) assay, fluorescence quenching assay, ITC assay, and CF Leakage assay in Figures 3–7. The fluorescence images (ratio of membrane permeabilized cells) were quantified by the software Adobe Photoshop 2021. The Kd values of brevibacillins to Lipid II were calculated using the Nano Analyze Software (Waters LLC). The statistical significance of the data was assessed using Duncan’s multiple range test with the software SPSS Statistics 26; values of p < 0.05 were considered to be statistically significant.
Figure 7 Brevibacillins disrupt membrane permeability without the need for Lipid II binding. (A), Cartoon schematic of the assay used to assess membrane permeability disruption of brevibacillins. (B), CF releases (%) vs. time graph showing the effects of adding brevibacillins to DOPC-LUVs with 0.1% Lipid II; peptide concentrations were 100 nm; a, when peptides were added; and b, when 20% Triton X-100 added. (C), CF releases (%) vs. time graph showing the effects of adding brevibacillins to LUVs of pure DOPC; peptide concentrations were 100 nm; a, when peptides were added; and b, when 20% Triton X-100 was added. (D), fluorescence microscopic images of S. aureus (MRSA) after have been treated by a series concentrations of brevibacillins and nisin for 15 min. (E), the ratio of membrane permeabilized cells that was quantified by Adobe Photoshop 2021; the data are representative of three independent experiments.
To investigate the in vivo membrane disruption capacity of brevibacillin and brevibacillin 2V, a membrane permeability assay was performed with a series of concentrations of antibiotics. Nisin was used as a control.

## Brevibacillin 2V
[1]
  rank order of membrane disruption capacity: brevibacillin I > brevibacillin > brevibacillin V > brevibacillin 2V
[2]
  membrane permeabilization (CF leakage), Lipid II containing LUVs: rapid membrane permeabilization
[3]
  membrane disruption (CF leakage), LUVs lacking Lipid II: still caused rapid disruption of membrane
[4]
  rank order of calculated hydrophobicity: brevibacillin I > brevibacillin > brevibacillin V > brevibacillin 2V
[5]
  MIC: 2 mg/L
  MIC (molar): 1.3 µM
[6]
  excimer fluorescence (about 490 nm): no excimer fluorescence could be detected
  pyrene monomer fluorescence: decreased the monomer fluorescence
[7]; 100 nM, versus untreated group
  membrane permeabilization at 100 nM: did not induce membrane permeabilization
[7]
  concentration needed to permeabilize virtually all cellular membranes: a similar concentration of brevibacillin and brevibacillin 2V is needed

## Brevibacillin
[1]
  speed of membrane permeabilization: appeared to act faster than brevibacillin 2V and the well-known pore-forming antibiotic nisin
  rank order of membrane disruption capacity: brevibacillin I > brevibacillin > brevibacillin V > brevibacillin 2V
[2]; LUVs with 0.1% Lipid II
  percentage of CF leakage, comparison in words: higher percentage of CF leakage than brevibacillin 2V
[2]
  membrane permeabilization (CF leakage), Lipid II containing LUVs: rapid membrane permeabilization
[3]
  membrane disruption (CF leakage), LUVs lacking Lipid II: still caused rapid disruption of membrane
[4]
  rank order of calculated hydrophobicity: brevibacillin I > brevibacillin > brevibacillin V > brevibacillin 2V
[5]
  MIC: 2 mg/L
  MIC (molar): 1.3 µM
[6]
  excimer fluorescence (about 490 nm): no excimer fluorescence could be detected
  pyrene monomer fluorescence: decreased the monomer fluorescence
[7]; 100 nM and 400 nM, ratio of membrane permeabilized cells, three independent experiments, p < 0.05
  membrane permeabilization capacity, comparison: significantly (p < 0.05) higher membrane permeabilization capacity than brevibacillin 2V
[7]
  concentration needed to permeabilize virtually all cellular membranes: a similar concentration of brevibacillin and brevibacillin 2V is needed
